Bounds are passed on as bounds.

What is called EC50 is the midpoint of the concentration-response curve. The low end stands for a more potent agent, the high end for a less potent agent.

For the first test, the system named is progranulin (PGRN) secretion, BV-2 cells. Nature of the test: PGRN assay: progranulin induction cellular assay (ELISA of secreted mouse PGRN). Format: cell-based.
Details: not given
An outline of the steps: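 Progranulin induction measured in BV-2 cells plated at about 80% confluence the day before, given 1 h to attach, then incubated 16 h. Secreted mouse PGRN quantified by ELISA.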
(ELISA stands for enzyme-linked immunosorbent assay.)
As for `O=C(O[C@@H]1CN2CCC1CC2)N1CCc2cccnc2[C@H]1c1ccc(F)cc1` [Compound 2055, (S)-quinuclidin-3-yl 8-(4-fluorophenyl)-5,6-dihydro-1,7-naphthyridine-7(8H)-carboxylate], the EC50 was 3300 nM.

The same test, now with this note: Mus musculus, BV-2.
`CS(=O)(=O)c1ccc2c(c1)CCN(C(=O)O[C@@H]1CN3CCC1CC3)[C@@H]2c1ccc(F)cc1` [Compound 2026] returned an EC50 of more than 10000 nM.

The molecule `C#CCOc1ccc2c(c1)CCN(C(=O)O[C@@H]1CN3CCC1CC3)[C@@H]2c1ccc(F)cc1` [Compound 2083] yielded an EC50 of 6070 nM.

Staying with this test, now noted: Mus musculus, BV-2, PGRN assay, Table C; secreted mouse PGRN in cell culture medium, ELISA.
For the molecule `O=C(OCC12CCN(CC1)CC2)N1CCc2ccccc2[C@H]1c1cc(F)c(F)c(F)c1` [Compound 2148], the EC50 was 8830 nM.

Molecule `COC(=O)c1ccc2c(c1)[C@H](c1ccc(F)cc1)N(C(=O)OCC13CCN(CC1)CC3)CC2` [Compound 2044] registered an EC50 of 4710 nM.

As to `O=C(N[C@@H]1CN2CCC1CC2)C(=O)N1CCc2ccccc2[C@@H]1c1ccc(F)cc1` [Compound 2104], the half-maximal effective concentration (EC50) is 1610 nM.

Regarding `CN(CC1CCNCC1)C(=O)N1CCc2ccccc2[C@@H]1c1ccc(F)cc1` [Compound 2182, 1-(4-fluorophenyl)-N-methyl-N-(piperidin-4-ylmethyl)-3,4-dihydroisoquinoline-2(1H)-carboxamide], the EC50 is more than 10000 nM.

The molecule `O=C(C(O)[C@@H]1CN2CCC1CC2)N1CCc2ccccc2[C@@H]1c1ccc(F)cc1` (stereo partly drawn) [Compound 2074, 1-((S)-1-(4-fluorophenyl)-3,4-dihydroisoquinolin-2(1H)-yl)-2-hydroxy-2-(quinuclidin-3-yl)ethanone] displayed an EC50 of 3400 nM.

In turn, `O=C1C[C@@H](COC(=O)N2CCc3ccccc3[C@@H]2c2ccc(F)cc2)CCN1` (single isomer, unassigned) [Compound 2186, (1 S)-(2-oxopiperidin-4-yl)methyl 1-(4-fluorophenyl)-3,4-dihydroisoquinoline-2(1H)-carboxylate] displayed an EC50 of more than 10000 nM.

Consider `COC(=O)c1ccc2c(c1)CCN(C(=O)OCC13CCN(CC1)CC3)[C@@H]2c1ccc(F)cc1` [Compound 2073], for which the concentration for a half-maximal effect (EC50) was more than 10000 nM.

Molecule `CN1CCC(COC(=O)N2CCc3ccccc3[C@@H]2c2cc(F)c(F)c(F)c2)CC1` [Compound 2142] yielded an EC50 of 8490 nM. In other words, the single-digit micromolar range.

Take `CNC(=O)c1ccc2c(c1)CCN(C(=O)NCC13CCN(CC1)CC3)[C@H]2c1ccc(F)cc1` [Compound 2070]: the EC50 is 3620 nM.

In turn, `O=C(N[C@H]1CCN2CCC[C@H]12)N1CCc2ccccc2[C@@H]1c1ccc(F)cc1` [Compound 2050] yielded an EC50 of 3900 nM.

With `CN1CCC(COC(=O)N2CCc3ccccc3[C@@H]2c2cccc(F)c2F)CC1` [Compound 2134], the half-maximal effective concentration (EC50) is more than 10000 nM.

Consider `O=C(O[C@H]1[C@@H]2CC[C@H]1CNC2)N1CCc2ccccc2[C@@H]1c1ccc(F)cc1` (single isomer, unassigned) [Compound 2102], for which the EC50 was found to be 278 nM.

Molecule `CN1CC2(CC(OC(=O)N3CCc4ccccc4[C@@H]3c3ccc(F)cc3)C2)C1` [Compound 2019] came in with an EC50 of 965 nM.

In turn, `CN1CC2OCC(OC(=O)N3CCc4ccccc4[C@@H]3c3ccc(F)cc3)C2C1` (single isomer, unassigned) [Compound 2076] gave an EC50 of more than 10000 nM.

Molecule `O=C(OC1CC2CCN(C2)C1)N1CCc2ccccc2[C@@H]1c1ccc(F)cc1` (stereo partly shown) [Compound 2002] came in with an EC50 of 748 nM.

`COc1ccc(COc2ccc([C@H]3c4ccccc4CCN3C(=O)OCC34CCN(CC3)CC4)cc2)cc1` [Compound 2136] had a half-maximal effective concentration (EC50) of more than 3160 nM.

For the molecule `CS(=O)(=O)c1ccc2c(c1)[C@H](c1ccc(F)cc1)N(C(=O)N[C@@H]1CN3CCC1CC3)CC2` [Compound 2056], the concentration giving a half-maximal response (EC50) was more than 10000 nM.

In turn, `O=C([C@H](O)CC12CCN(CC1)CC2)N1CCc2ccccc2[C@@H]1c1ccc(F)cc1` (single isomer, unassigned) [Compound 2154] had an EC50 of 353 nM. That is a sub-micromolar value.

Molecule `C#CCN1CCC(OC(=O)N2CCc3ccccc3[C@@H]2c2ccc(F)cc2)CC1` [Compound 2195, 1-(prop-2-yn-1-yl)piperidin-4-yl (S)-1-(4-fluorophenyl)-3,4-dihydroisoquinoline-2(1H)-carboxylate] had a 50% effective concentration (EC50) of 1700 nM.

For `CN1CCO[C@@H](COC(=O)N2CCc3ccccc3[C@@H]2c2ccc(F)cc2)C1` [Compound 2005], the midpoint of the response, the EC50, lay at 587 nM.

Still in this test, the particulars now being: Mus musculus, BV-2, PGRN assay, Table D; secreted mouse PGRN in cell culture medium, ELISA.
Molecule `CNC[C@@H]1CN(C(=O)N2CCc3ccccc3[C@@H]2c2ccc(F)cc2)CCO1` [Compound 2306] gave an EC50 of 129 nM.

In the case of `O=C(O[C@@H]1CNCC12CC2)N1CCc2ccccc2[C@@H]1c1ccc(F)cc1` (stereo in doubt) [Compound 2310, 5-azaspiro[2.4]heptan-7-yl-(1 S)-1-(4-fluorophenyl)-3,4-dihydroisoquinoline-2(1H)-carboxylate], the EC50 amounted to 501 nM.

Molecule `O=C(O[C@H]1CNC[C@@H]1F)N1CCc2ccccc2[C@@H]1c1ccc(F)cc1` [Compound 2361, (3S,4S)-4-fluoropyrrolidin-3-yl (S)-1-(4-fluorophenyl)-3,4-dihydroisoquinoline-2(1H)-carboxylate] returned an EC50 of 365 nM.

The molecule `O=C(NC[C@@H]1CCCNC1)N1CCc2ccccc2[C@@H]1c1ccc(F)cc1` [Compound 2221] registered an EC50 of 7830 nM. Against the preceding molecule, the EC50 is about 21-fold higher.

In the case of `CN1CC[C@@H](O)[C@H](O)[C@H]1COC(=O)N1CCc2ccccc2[C@@H]1c1ccc(F)cc1` [Compound 2289, ((2R,3R,4R)-3,4-dihydroxy-1-methylpiperidin-2-yl)methyl (S)-1-(4-fluorophenyl)-3,4-dihydroisoquinoline-2(1H)-carboxylate], the EC50 is more than 10000 nM.

With `O=C(NC[C@@H]1CCCN1)N1CCc2ccccc2[C@@H]1c1ccc(F)cc1` [Compound 2217], the EC50 was 3940 nM.

`O=C(O[C@@H]1CNCCOC1)N1CCc2ccccc2[C@@H]1c1ccc(F)cc1` [Compound 2260] came in with an EC50 of 730 nM. This EC50 lies about 5.4-fold lower than the previous one.

`N[C@@H]1CCN(C(=O)N2CCc3ccccc3[C@H]2c2ccc(F)cc2)C1` [Compound 2286] came in with an EC50 of 2840 nM.

Molecule `CN(C)C[C@H]1CCN(C(=O)N2CCc3ccccc3[C@@H]2c2ccc(F)cc2)C1` [Compound 2314] gave an EC50 of 1660 nM.

For the molecule `O=C(NC[C@H]1CNCCO1)N1CCc2ccccc2[C@@H]1c1ccc(F)cc1` (single isomer, unassigned) [Compound 2210], the EC50 turned out to be 860 nM.

With `CN(C)C[C@@H]1CCN(C(=O)N2CCc3ccccc3[C@@H]2c2ccc(F)cc2)C1` [Compound 2313, ((S)-3-((dimethylamino)methyl)pyrrolidin-1-yl)((S)-1-(4-fluorophenyl)-3,4-dihydroisoquinolin-2(1H)-yl)methanone], the EC50 was 2940 nM.

Consider `CC1(C)CNC[C@@H]1NC(=O)N1CCc2ccccc2[C@@H]1c1ccc(F)cc1` [Compound 2268], for which the EC50 was determined as 180 nM.

Take `NC[C@@H]1CN(C(=O)N2CCc3ccccc3[C@@H]2c2ccc(F)cc2)CCO1` [Compound 2302, ((R)-2-(aminomethyl)morpholino)((S)-1-(4-fluorophenyl)-3,4-dihydroisoquinolin-2(1H)-yl)methanone]: the EC50 worked out at 160 nM.

The molecule `CNC[C@H]1CN(C(=O)N2CCc3ccccc3[C@@H]2c2ccc(F)cc2)CCO1` [Compound 2307] registered an EC50 of 483 nM.

`O=C(N[C@@H]1CNC[C@H]1F)N1CCc2ccccc2[C@@H]1c1ccc(F)cc1` [Compound 2360] registered an EC50 of 148 nM.

`CN(C(=O)N1CCc2ccccc2[C@@H]1c1ccc(F)cc1)[C@@H]1CNCC1(F)F` [Compound 2296, (S)—N—((R)-4,4-difluoropyrrolidin-3-yl)-1-(4-fluorophenyl)-N-methyl-3,4-dihydroisoquinoline-2(1H)-carboxamide] gave an EC50 of 4020 nM.

As to `CN1CCCN(C(=O)N2CCc3ccccc3[C@@H]2c2ccc(F)cc2)CC1` [Compound 2269, (S)-(1-(4-fluorophenyl)-3,4-dihydroisoquinolin-2(1H)-yl)(4-methyl-1,4-diazepan-1-yl)methanone], the EC50 was found to be 656 nM.

In the case of `O=C(N[C@H]1CNCC12CC2)N1CCc2ccccc2[C@@H]1c1ccc(F)cc1` [Compound 2280], the EC50 is 1180 nM.

Regarding `N[C@H]1CCN(C(=O)N2CCc3ccccc3[C@H]2c2ccc(F)cc2)C1` (single isomer, unassigned) [Compound 2285], the EC50 came to 3440 nM.

In the case of `CN1CCC(OC2(C(=O)N3CCc4ccccc4[C@@H]3c3ccc(F)cc3)CC2)CC1` [Compound 2247], the EC50 is more than 10000 nM.

Molecule `O=C(OCC1(F)CNC1)N1CCc2ccccc2[C@@H]1c1ccc(F)cc1` [Compound 2258] had an EC50 of 270 nM.

Molecule `O=C(N1CC[C@]2(CNCCO2)C1)N1CCc2ccccc2[C@H]1c1ccc(F)cc1` (single isomer, unassigned) [Compound 2325] had an EC50 of 4700 nM.

Regarding `O=C(NC[C@H]1CCCN1)N1CCc2ccccc2[C@@H]1c1ccc(F)cc1` [Compound 2216], a half-maximal response (EC50) required 2670 nM. This EC50 is about 1.8-fold lower than that of the molecule before.

`CN1CC[C@H](O)[C@@H](OC(=O)N2CCc3ccccc3[C@@H]2c2ccc(F)cc2)[C@@H]1CO` (single isomer, unassigned) [Compound 2305] registered an EC50 of 5870 nM. This EC50 is about 2.2-fold higher than that of the molecule before.

Regarding `NC[C@H]1CCN(C(=O)N2CCc3ccccc3[C@@H]2c2ccc(F)cc2)C1` [Compound 2288], the EC50 was 248 nM.

Turning to `CN1C[C@@H](N(C)C(=O)N2CCc3ccccc3[C@@H]2c2ccc(F)cc2)C(F)(F)C1` [Compound 2298, (S)—N—((R)-4,4-difluoro-1-methylpyrrolidin-3-yl)-1-(4-fluorophenyl)-N-methyl-3,4-dihydroisoquinoline-2(1H)-carboxamide], the EC50 is more than 10000 nM.

`O=C(OC[C@]1(F)CCNC1)N1CCc2ccccc2[C@@H]1c1ccc(F)cc1` [Compound 2256]: the concentration giving a half-maximal response (EC50) was 170 nM.

Still in this test, the particulars now being: PGRN assay, Table C; secreted mouse PGRN in cell culture medium, ELISA.
Regarding `O=C(OC1CNC1)N1CCc2ccccc2[C@@H]1c1ccc(F)cc1` [Compound 2177], the EC50 is more than 3160 nM.

`O=C(OC1CCNCC1)N1CCc2ccccc2[C@@H]1c1ccc(F)cc1` [Compound 2176] displayed an EC50 of 290 nM.

These data come from patent publication US20220251084A1, “PROGRANULIN MODULATORS AND METHODS OF USING THE SAME” (ARKUDA THERAPEUTICS, priority 2019, published 2022).
